Source: patent publication US5846934A, “Pure somatostatin antagonist and methods of use thereof” (American Cyanamid Company, priority 1997, dated 1998)
Positions of bridges follow the written chain, without caps; N, C: chain ends. Non-standard residues stand in square brackets, D forms with d. Residues, ends and D or L forms follow the SMILES beside them. Phe(4-NO2) = N[C@@H](Cc1ccc([N+](=O)[O-])cc1)C(=O)O; 2Nal = N[C@@H](Cc1ccc2ccccc2c1)C(=O)O; d2Nal = N[C@H](Cc1ccc2ccccc2c1)C(=O)O

What was measured:
[1] = biological target: T1, rat somatostatin receptor subtype 2 (SSTR2) (Rattus norvegicus, UniProt P30680); assay: Yeast assay, somatostatin agonist activity (zone of growth of modified yeast cells); format: cell-based; design: key: 1 is minimum agonist activity; 5 is maximum agonist activity; --: When no activity is observed, the result is indicated by a dash; conditions: rating on a scale of 1-5 from zone of growth; S. cerevisiae LY364 expressing rat SSTR2
T1 construct: expressed in transfected cells; host or cells: Saccharomyces cerevisiae LY364 bearing pJH2 (SSTR2) and pLP82 (G protein)
Procedure: (§1) In this evaluation, yeast cells which have been specifically modified to functionally express rat somatostatin receptor subtype 2 (SSTR2) on their cell surfaces are used. S. Cerevisiae LY364 cells are plated in a standard synthetic agar medium which lacks histidine. In the absence of a somatostatin receptor agonist, the auxotrophic (his3) cells are unable to grow. In the presence of somatostatin, or a somatostatin agonist, the expression of an enzyme (His3p: imidazole-glycerol phosphate dehydratase) which is essential for histidine biosynthesis is induced. The cells become competent to produce histidine, resulting in a zone of growing cells around the applied test compound. The zone is measured and the test compound is given an agonist rating on a scale of 1-5 wherein 1 is minimum agonist activity and 5 is maximum agonist activity.
1) Inoculate 2 mL SCD-ura-trp liquid medium in Falcon 2051 tube with a single colony taken from a plate containing LY364 (MATa ura3-52 leu2 his3 trp1 lys2 ade2 far1:: LYS2 fus1:: FUS1-HIS3 gpa1::hisG sst2::.ADE2 bearing the SSTR2 expression plasmid, pJH2, and the G protein expression plasmid, pLP82) cells.
3) Add 1 mL of LY364 culture to 1 liter of agar medium.
8) Incubate plates at 30° C.
Day 5. Begin checking plates for growth around applied compounds.
(§2) Day 7. Growth in response to somatostatin should be readily observable. Rate extent of growth or inhibition of growth according to rating scale described hereinabove.

[2] = biological target: T1, rat somatostatin receptor subtype 2 (SSTR2); assay: Yeast assay, somatostatin antagonist activity (zone of no growth in presence of S-14); format: cell-based; design: key: 1 is minimum antagonist activity; 5 is maximum antagonist activity; --: When no activity is observed, the result is indicated by a dash; conditions: rating on a scale of 1-5 from zone of no growth; 5 μL of 1 mg/mL S-14 added to each plate
Procedure: as §1
To evaluate the somatostatin antagonist activity of a test compound, the above procedure is followed except on day 3, 5 μL of 1 mg/mL of somatostatin, S-14, is added to each plate, before applying the test compound. If the test compound is an antagonist of somatostatin, then a zone of no growth will appear within the cell growth zone. This zone of no growth is measured and the test compound is given an antagonist rating on a scale of 1-5 wherein 1 is minimum antagonist activity and 5 is maximum antagonist activity.
The results are shown in Table I. When no activity is observed, the result is indicated by a dash.
On day 3, add 5 μL 1 mg/mL S-14 to each plate.
as §2

SSTR2 [3] = biological target: T2, SSTR2 (Rattus norvegicus, UniProt P30680); assay: Cyclic AMP accumulation, forskalin stimulated, intact cells; format: cell-based; conditions: read-out: SSTR^2 % IA (% intrinsic activity)
From the text: Cyclic AMP accumulation assays are used to determine the functional coupling of somatostatin receptors to effectors. All five cloned somatostatin receptors inhibit cyclic AMP accumulation and adenylyl cyclone activity.^1,2,3,4,5 This evaluation measures cyclic AMP accumulation from intact cells using the adrenal binding protein method. Signal transduction by somatostatin is mediated by lowering intracellular c-AMP levels. This functional assay measures the ability of the test compound to inhibit the effect of somatostatin on forskalin stimulated c-AMP levels.
Bovine adrenal gland extracts are prepared according to the method of Brown et al^6 with minor modifications. […]
Somatostatin-mediated inhibition of cyclic AMP accumulation is measured in intact cells co-incubated with the diterpene forskalin (5 μM) which activates adenylyl cyclase directly and stimulates cyclic AMP accumulation in cells. […] The cells are counted and the concentration of cells is adjusted to 50,000/70 μl and incubated 15 minutes at room temperature before starting the assay. […]

SSTR2 [4] = biological target: T2, SSTR2; assay: Competitive binding, displacement of [125I]Tyr11 S-14; design: expressed in transfected cells; membrane protein
Procedure: In this evaluation the concentration of test compound required to displace 50% of somatostatin, SRIF, from the SRIF receptor subtypes expressed in mammalian cells is measured, i.e., the concentration required to inhibit 50% of [^125 I] Tyr^11 S-14 (Amersham) (IC50) from binding to the SRIF receptor subtypes.
Radiolabeled SRIF is mixed with pituitary cells, the test compound is added, the mixture is incubated and the radioactivity is measured as compared to control. Reduced radioactivity indicates successful competitive binding of the test compound to the pituitary cell receptor. The concentration of the test compound in nanomolar units required to displace 50% of SRIF from the pituitary cell receptor is calculated and reported in Table II as the IC50 value. Also calculated is the inhibitory constant, Ki.
Tyr^11 S-14 (150,000 cpm at 2000 Ci/mmole, 250 pM final concentration). The binding reaction is initiated by adding 2-60 μg of membrane protein in a 170 μL volume. Final reaction volume is 200 μl/well. All incubations are carried out at room temperature for 2 hours. Free radioligand is separated from bound ligand by rapid filtration through a glass fiber filter (IH-201-HA) using an Inotech cell harvester. The filter is then washed several times with cold (4° C.) binding buffer lacking BSA and protease inhibitors prior to counting in an LKB gamma master counter (78% efficiency). Whatman GFC filters presoaked in 0.3% polyethylenimine (to decrease background) are used.
The IC50 values and Ki values are calculated using the well-known methods described by Y. Cheng and W. H. Prusoff, Biochem. Pharmacol. 22, 3099-3108 (1973), incorporated herein by reference thereto.

T2 sequence (P30680 whole entry): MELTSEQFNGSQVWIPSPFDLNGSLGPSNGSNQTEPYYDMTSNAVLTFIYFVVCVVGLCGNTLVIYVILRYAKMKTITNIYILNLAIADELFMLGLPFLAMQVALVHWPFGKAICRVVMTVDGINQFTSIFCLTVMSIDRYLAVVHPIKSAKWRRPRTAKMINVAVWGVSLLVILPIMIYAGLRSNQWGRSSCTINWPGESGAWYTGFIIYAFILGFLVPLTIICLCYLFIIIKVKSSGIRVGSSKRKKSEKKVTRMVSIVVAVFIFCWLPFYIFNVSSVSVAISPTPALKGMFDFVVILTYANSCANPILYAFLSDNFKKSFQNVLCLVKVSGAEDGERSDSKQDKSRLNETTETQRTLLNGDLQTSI
T1 sequence (P30680 whole entry): as above

Row | SMILES | Yeast Assay Agonist [1] | Yeast Assay Antagonist [2] | Emax (SSTR2 [3]) | Ki (SSTR2 [4]; calculated by method of Cheng and Prusoff, read-out: SSTR2 Binding Affinity Ki) | IC50 (SSTR2 [4]; displacement of [125I]Tyr11 S-14, 250 pM, room temperature, 2 hours, read-out: SSTR2 Binding Affinity IC50)
1 | NCCCC[C@@H]1NC(=O)[C@@H](Cc2c[nH]c3ccccc23)NC(=O)[C@H](Cc2ccc(O)cc2)NC(=O)[C@H](NC(=O)[C@@H](N)Cc2ccc([N+](=O)[O-])cc2)CSSC[C@@H](C(=O)N[C@@H](Cc2ccc3ccccc3c2)C(N)=O)NC(=O)[C@H](CO)NC1=O [4-NO2 Phe Tyr Lys Ser Nal(2)] (H-[Phe(4-NO2)][dC]Y[dW]KSC[2Nal]-NH2; disulfide 2-7 (inferred); N-terminus and C-terminus assumed) | -- | 3 | 7% |  | 
2 | C[C@@H](O)[C@@H]1NC(=O)[C@H](CCCCN)NC(=O)[C@@H](Cc2c[nH]c3ccccc23)NC(=O)[C@H](Cc2ccc(O)cc2)NC(=O)[C@H](NC(=O)[C@@H](N)Cc2ccc(I)cc2)CSSC[C@@H](C(=O)N[C@@H](Cc2ccc(O)cc2)C(N)=O)NC1=O [4-IPhe Tyr Lys Thr Tyr] | -- | 5 | -12% |  | 
3 | CC(C)[C@@H]1NC(=O)[C@H](CCCCN)NC(=O)[C@@H](Cc2c[nH]c3ccccc23)NC(=O)[C@H](Cc2ccc(O)cc2)NC(=O)[C@H](NC(=O)[C@H](N)Cc2ccc3ccccc3c2)CSSC[C@@H](C(=O)N[C@@H](Cc2ccc(O)cc2)C(N)=O)NC1=O [D-Nal(2) Tyr Lys Val Tyr] (H-[d2Nal][dC]Y[dW]KVCY-NH2; disulfide 2-7) | -- | 2 |  | 0.89 nM | 2 nM
